One may read the Ki as the dissociation constant of the complex between target and ligand, obtained from inhibition or displacement. One may read the melting point as the temperature of the solid-liquid transition.

Here are results for 12 compounds from PMC9987750, “Potent carbonic anhydrase I, II, IX and XII inhibition activity of novel primary benzenesulfonamides incorporating bis-ureido moieties” (Journal of Enzyme Inhibition and Medicinal Chemistry, 2023).

Data set [1] concerns the target T1, hCA II (Homo sapiens, UniProt P00918).
T1 construct: made in house
Put plainly: stopped flow CO2 hydrase assay, CA inhibition. The class given is biochemical. The settings on record: recombinant enzyme, pH 7.4, 10 min pre-incubation, from 3 different assays. On the procedure: (§1) An SX.18 MV-R Applied Photophysics (Oxford, UK) stopped-flow instrument has been used to assay the catalytic/inhibition of various CA isozymes. […] Stock solutions of inhibitors were prepared at a concentration of 10 mM (in DMSO-water 1:1, v/v) and dilutions up to 0.01 nM done with the assay buffer mentioned above. […] Inhibitor and enzyme solutions were pre-incubated together for 10 min at room temperature prior to assay, in order to allow for the formation of the E-I complex. […] The inhibition constants were obtained by nonlinear least-squares methods using the Cheng-Prusoff equation, as reported earlier, and represent the mean from at least three different determinations.

Data set [2] has as its target T2, hCA IX (Homo sapiens, UniProt Q16790).
T2 construct: made in house
Put plainly: stopped flow CO2 hydrase assay, CA inhibition. The class given is biochemical. The settings on record: recombinant enzyme, pH 7.4, 10 min pre-incubation, from 3 different assays. On the procedure: as §1

The target of data set [3] is T3, hCA XII (Homo sapiens, UniProt O43570).
T3 construct: made in house
T3 sequence (O43570 25-354): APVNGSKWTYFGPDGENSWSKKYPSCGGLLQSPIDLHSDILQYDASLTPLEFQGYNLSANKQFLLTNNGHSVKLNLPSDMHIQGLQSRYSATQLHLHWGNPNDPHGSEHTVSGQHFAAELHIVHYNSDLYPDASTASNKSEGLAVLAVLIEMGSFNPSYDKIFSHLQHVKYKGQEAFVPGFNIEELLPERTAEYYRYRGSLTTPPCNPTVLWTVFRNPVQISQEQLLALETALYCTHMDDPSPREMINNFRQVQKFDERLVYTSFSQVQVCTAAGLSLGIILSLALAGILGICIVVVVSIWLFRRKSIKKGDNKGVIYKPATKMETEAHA
Put plainly: stopped flow CO2 hydrase assay, CA inhibition. The settings on record: recombinant enzyme, pH 7.4, 10 min pre-incubation, from 3 different assays. The class given is biochemical. On the procedure:
as §1

Data set [4] addresses T4, hCA I (Homo sapiens, UniProt P00915).
T4 construct: made in house
Put plainly: stopped flow CO2 hydrase assay, CA inhibition. The class given is biochemical. The settings on record: recombinant enzyme, pH 7.4, 10 min pre-incubation, from 3 different assays. On the procedure: as §1

T4 sequence (P00915 whole entry): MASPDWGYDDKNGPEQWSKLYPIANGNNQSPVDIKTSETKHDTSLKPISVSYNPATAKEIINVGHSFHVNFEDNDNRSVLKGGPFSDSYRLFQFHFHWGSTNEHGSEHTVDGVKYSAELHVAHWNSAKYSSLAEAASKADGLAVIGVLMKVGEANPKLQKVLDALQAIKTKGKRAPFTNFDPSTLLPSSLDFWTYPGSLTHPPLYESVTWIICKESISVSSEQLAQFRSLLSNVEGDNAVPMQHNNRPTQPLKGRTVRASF

`NS(=O)(=O)c1ccc(NC(=O)Nc2ccc(NC(=O)Nc3ccc(S(N)(=O)=O)cc3)cc2)cc1` [Compound 8, 4,4'-(((1,4-Phenylenebis(azanediyl))bis(carbonyl))bis(azanediyl))dibenzenesulfonamide] came in with a melting point greater than 300 °C. In addition, the Ki in data set [1] was found to be 680 nM. Besides, the Ki in data set [2] is 57.5 nM. Moreover, the Ki in data set [3] stood at 37.3 nM. Further, in data set [4], the Ki turned out to be 7280 nM.
The compound `NS(=O)(=O)c1ccc(NC(=O)Nc2ccc(Cc3ccc(NC(=O)Nc4ccc(S(N)(=O)=O)cc4)cc3)cc2)cc1` [Compound 9, 4,4'-((((Methylenebis(4,1-phenylene))bis(azanediyl))bis(carbonyl))bis(azanediyl))dibenzenesulfonamide] registered a melting point of 293 to 294 °C. Further, the Ki in data set [1] turned out to be 484 nM. The Ki in data set [2] turned out to be 835 nM. Also, in data set [3], the Ki was found to be 429 nM. Moreover, the Ki in data set [4] stood at 6280 nM.
As to `Cc1cc(-c2ccc(NC(=O)Nc3ccc(S(N)(=O)=O)cc3)c(C)c2)ccc1NC(=O)Nc1ccc(S(N)(=O)=O)cc1` [Compound 10, 4,4'-((((3,3'-Dimethyl-[1,1'-biphenyl]-4,4'-diyl)bis(azanediyl))bis(carbonyl))bis(azanediyl))dibenzenesulfonamide], the melting point is greater than 300 °C. Moreover, in data set [1], the Ki is 302 nM. Besides, the Ki in data set [2] came out at 86.4 nM. Besides, the Ki in data set [3] was found to be 52.3 nM. For the same compound, the Ki in data set [4] turned out to be 947 nM.
Take `Cc1ccc(NC(=O)Nc2ccc(S(N)(=O)=O)cc2)cc1NC(=O)Nc1ccc(S(N)(=O)=O)cc1` [Compound 11, 4,4'-((((4-Methyl-1,3-phenylene)bis(azanediyl))bis(carbonyl))bis(azanediyl))dibenzenesulfonamide]: the melting point was 279 to 281 °C. The Ki in data set [1] worked out at 4.4 nM. The Ki in data set [2] came to 6.73 nM. Besides, the Ki in data set [3] was determined as 7.39 nM. Moreover, the Ki in data set [4] came to 68.1 nM.
For `NS(=O)(=O)c1cccc(NC(=O)Nc2ccc(NC(=O)Nc3cccc(S(N)(=O)=O)c3)cc2)c1` [Compound 12, 3,3'-(((1,4-Phenylenebis(azanediyl))bis(carbonyl))bis(azanediyl))dibenzenesulfonamide], in that order: greater than 300 °C, 550 nM, 63.8 nM, 63.2 nM and 6520 nM.
`NS(=O)(=O)c1cccc(NC(=O)Nc2ccc(Cc3ccc(NC(=O)Nc4cccc(S(N)(=O)=O)c4)cc3)cc2)c1` [Compound 13, 3,3'-((((Methylenebis(4,1-phenylene))bis(azanediyl))bis(carbonyl))bis(azanediyl))dibenzenesulfonamide] displayed a melting point of 293 to 295 °C. For the same compound, in data set [1], the Ki amounted to 306 nM. The Ki in data set [2] was 78.7 nM. Besides, the Ki in data set [3] is 27.7 nM. The Ki in data set [4] turned out to be 9170 nM.
Take `Cc1cc(-c2ccc(NC(=O)Nc3cccc(S(N)(=O)=O)c3)c(C)c2)ccc1NC(=O)Nc1cccc(S(N)(=O)=O)c1` [Compound 14, 3,3'-((((3,3'-Dimethyl-[1,1'-biphenyl]-4,4'-diyl)bis(azanediyl))bis(carbonyl))bis(azanediyl))dibenzenesulfonamide]: the melting point was greater than 300 °C. For the same compound, in data set [1], the Ki worked out at 637 nM. In data set [2], the Ki was 578 nM. Further, the Ki in data set [3] was 67.9 nM. Besides, the Ki in data set [4] is 688 nM.
For `Cc1ccc(NC(=O)Nc2cccc(S(N)(=O)=O)c2)cc1NC(=O)Nc1cccc(S(N)(=O)=O)c1` [Compound 15, 3,3'-((((4-Methyl-1,3-phenylene)bis(azanediyl))bis(carbonyl))bis(azanediyl))dibenzenesulfonamide], in that order: 233 to 234 °C, 80.8 nM, 81.1 nM, 67.1 nM and 5000 nM.
For `NS(=O)(=O)c1ccc(CCNC(=O)Nc2ccc(NC(=O)NCCc3ccc(S(N)(=O)=O)cc3)cc2)cc1` [Compound 16, 4,4'-((((1,4-Phenylenebis(azanediyl))bis(carbonyl))bis(azanediyl))bis(ethane-2,1-diyl))dibenzenesulfonamide], the melting point was greater than 300 °C. Further, the Ki in data set [1] turned out to be 424 nM. Moreover, the Ki in data set [2] came to 68.7 nM. Also, the Ki in data set [3] amounted to 82.8 nM. Further, in data set [4], the Ki is 2910 nM.
Compound `NS(=O)(=O)c1ccc(CCNC(=O)Nc2ccc(Cc3ccc(NC(=O)NCCc4ccc(S(N)(=O)=O)cc4)cc3)cc2)cc1` [Compound 17, 4,4'-(((((Methylenebis(4,1-phenylene))bis(azanediyl))bis(carbonyl))bis(azanediyl))bis(ethane-2,1-diyl))dibenzenesulfonamide] gave a melting point of 270 to 272 °C. Further, the Ki in data set [1] was determined as 792 nM. Moreover, the Ki in data set [2] was 91.9 nM. In addition, in data set [3], the Ki stood at 33.6 nM. In data set [4], the Ki was determined as 5350 nM.
Compound `Cc1cc(-c2ccc(NC(=O)NCCc3ccc(S(N)(=O)=O)cc3)c(C)c2)ccc1NC(=O)NCCc1ccc(S(N)(=O)=O)cc1` [Compound 18, 4,4'-(((((3,3'-Dimethyl-[1,1'-biphenyl]-4,4'-diyl)bis(azanediyl))bis(carbonyl))bis(azanediyl))bis(ethane-2,1-diyl))dibenzenesulfonamide] displayed a melting point greater than 300 °C. Further, the Ki in data set [1] is 604 nM. The Ki in data set [2] is 93.7 nM. For the same compound, the Ki in data set [3] stood at 60.3 nM. The Ki in data set [4] was found to be 8310 nM.
Turning to `Cc1ccc(NC(=O)NCCc2ccc(S(N)(=O)=O)cc2)cc1NC(=O)NCCc1ccc(S(N)(=O)=O)cc1` [Compound 19, 4,4'-(((((4-Methyl-1,3-phenylene)bis(azanediyl))bis(carbonyl))bis(azanediyl))bis(ethane-2,1-diyl))dibenzenesulfonamide], the melting point is 245 to 247 °C. Further, the Ki in data set [1] came to 25.8 nM. In addition, the Ki in data set [2] turned out to be 8.92 nM. Besides, in data set [3], the Ki was determined as 5.02 nM. Moreover, the Ki in data set [4] came out at 95.4 nM.
